According to PubChem BioAssay AID192 (DTP/NCI, 2004):
“And” between values parts separate entries of the source, which are not always exact repeats. Identical values can stand only once. Toxic doses and inconclusive results are not listed. The calls were made as follows: active = survival T/C of 150% or more; inactive = T/C below 125% in these data.

Test system: BDF1 mice, B16 melanoma ip, median survival T/C
Experiment: NCI In Vivo Anticancer Drug Screen. Data for tumor model B16 Melanoma (intraperitoneal) in B6D2F1 (BDF1) mice
Settings: endpoint: median survival time, higher = longer survival
How it was run: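 Mice with transplantable tumors; drug vs vehicle groups; endpoint survival or tumor size; value = T/C.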

Measured: T/C

O=C(O)CCCc1ccc(N(CCCl)CCCl)cc1
inactive: dose: 0.37 mg/kg/injection, schedule: Q01DX009 (ip), vehicle: Klucel (hydroxypropylcellulose) (HPC) 100 % of control | dose: 0.5 mg/kg/injection, schedule: Q01DX009 (ip), vehicle: Klucel (hydroxypropylcellulose) (HPC) 93 % of control and 104 % of control | dose: 1.0 mg/kg/injection, schedule: Q01DX009 (ip), vehicle: Klucel (hydroxypropylcellulose) (HPC) 101 % of control and 104 % of control and 117 % of control | dose: 1.5 mg/kg/injection, schedule: Q01DX009 (ip), vehicle: Klucel (hydroxypropylcellulose) (HPC) 88 % of control and 89 % of control | dose: 1.88 mg/kg/injection, schedule: Q01DX009 (ip), vehicle: Klucel (hydroxypropylcellulose) (HPC) 112 % of control | dose: 2.0 mg/kg/injection, schedule: Q01DX009 (ip), vehicle: Klucel (hydroxypropylcellulose) (HPC) 100 % of control and 107 % of control and 109 % of control | dose: 2.0 mg/kg/injection, schedule: Q01DX017 (ip), vehicle: saline 109 % of control | dose: 3.0 mg/kg/injection, schedule: Q01DX009 (ip), vehicle: Klucel (hydroxypropylcellulose) (HPC) 86 % of control and 87 % of control | dose: 3.13 mg/kg/injection, schedule: Q01DX009 (ip), vehicle: saline 100 % of control | dose: 3.75 mg/kg/injection, schedule: Q01DX009 (ip), vehicle: Klucel (hydroxypropylcellulose) (HPC) 110 % of control | dose: 4.0 mg/kg/injection, schedule: Q01DX009 (ip), vehicle: Klucel (hydroxypropylcellulose) (HPC) 108 % of control and 109 % of control and 118 % of control | dose: 4.0 mg/kg/injection, schedule: Q01DX009 (ip), vehicle: saline 104 % of control | dose: 4.0 mg/kg/injection, schedule: Q01DX017 (ip), vehicle: saline 121 % of control | dose: 6.0 mg/kg/injection, schedule: Q01DX009 (ip), vehicle: Klucel (hydroxypropylcellulose) (HPC) 89 % of control and 118 % of control | dose: 6.25 mg/kg/injection, schedule: Q01DX009 (ip), vehicle: saline 104 % of control | dose: 7.5 mg/kg/injection, schedule: Q01DX009 (ip), vehicle: Klucel (hydroxypropylcellulose) (HPC) 116 % of control | dose: 8.0 mg/kg/injection, schedule: Q01DX001 (ip), vehicle: saline 95 % of control | dose: 8.0 mg/kg/injection, schedule: Q01DX009 (ip), vehicle: Klucel (hydroxypropylcellulose) (HPC) 111 % of control and 120 % of control | dose: 8.0 mg/kg/injection, schedule: Q01DX009 (ip), vehicle: saline 119 % of control | dose: 8.0 mg/kg/injection, schedule: Q04DX003 (ip), vehicle: saline 122 % of control | dose: 12.0 mg/kg/injection, schedule: Q01DX009 (ip), vehicle: Klucel (hydroxypropylcellulose) (HPC) 100 % of control | dose: 16.0 mg/kg/injection, schedule: Q01DX001 (ip), vehicle: saline 118 % of control | dose: 16.0 mg/kg/injection, schedule: Q01DX009 (ip), vehicle: saline 121 % of control | dose: 16.0 mg/kg/injection, schedule: Q04DX003 (ip), vehicle: saline 122 % of control

COc1cc(O)c(Cc2ccccc2O)c(O)c1C(=O)CCc1ccccc1
inactive: dose: 1.25 mg/kg/injection, schedule: Q01DX009 (ip), vehicle: other 100 % of control | dose: 2.5 mg/kg/injection, schedule: Q01DX009 (ip), vehicle: other 100 % of control | dose: 5.0 mg/kg/injection, schedule: Q01DX009 (ip), vehicle: other 92 % of control | dose: 10.0 mg/kg/injection, schedule: Q01DX009 (ip), vehicle: other 100 % of control

COc1cc2c(cc1OC)-c1ccc3cc4c(cc3c1N(C)C2)OCO4
inactive: dose: 5.0 mg/kg/injection, schedule: Q01DX009 (ip), vehicle: water 103 % of control | dose: 10.0 mg/kg/injection, schedule: Q01DX009 (ip), vehicle: water 102 % of control | dose: 20.0 mg/kg/injection, schedule: Q01DX009 (ip), vehicle: water 100 % of control | dose: 40.0 mg/kg/injection, schedule: Q01DX009 (ip), vehicle: water 101 % of control | dose: 80.0 mg/kg/injection, schedule: Q01DX009 (ip), vehicle: water 102 % of control

COc1ccc(NC(=O)Nc2ccc(Br)cc2)cc1
inactive: dose: 25.0 mg/kg/injection, schedule: Q01DX009 (ip), vehicle: saline with Tween-80 98 % of control | dose: 50.0 mg/kg/injection, schedule: Q01DX009 (ip), vehicle: saline with Tween-80 92 % of control | dose: 100.0 mg/kg/injection, schedule: Q01DX009 (ip), vehicle: saline with Tween-80 89 % of control and 95 % of control

O=C1c2ccccc2CC12OC2c1ccccc1 (stereo not given)
inactive: dose: 50.0 mg/kg/injection, schedule: Q01DX009 (ip), vehicle: Klucel (hydroxypropylcellulose) (HPC) 94 % of control | dose: 100.0 mg/kg/injection, schedule: Q01DX009 (ip), vehicle: Klucel (hydroxypropylcellulose) (HPC) 90 % of control | dose: 200.0 mg/kg/injection, schedule: Q01DX009 (ip), vehicle: Klucel (hydroxypropylcellulose) (HPC) 103 % of control | dose: 400.0 mg/kg/injection, schedule: Q01DX009 (ip), vehicle: Klucel (hydroxypropylcellulose) (HPC) 96 % of control
